Laboratory results as given in patent publication US9079974B2, “GH-RH analogs with potent agonistic effects” (The University of Miami, priority 2011, dated 2015).
“Also recorded” adds a separate entry of the source. Blank lines part the entries; values can stand above or below the compound they belong to. Square brackets hold non-standard residues; d marks the D form. Peptide text beside a SMILES is read from it. * marks the point of attachment. Phe(F5) = N[C@@H](Cc1c(F)c(F)c(F)c(F)c1F)C(=O)O; Desaminotyrosyl = O=C(CCc1ccc(O)cc1)*; NMeY = CN[C@@H](Cc1ccc(O)cc1)C(=O)O; Agmatine = N=C(N)NCCCCN*; Nle = CCCC[C@H](N)C(=O)O; Orn = NCCC[C@H](N)C(=O)O; Abu = CC[C@H](N)C(=O)O; GABA = NCCCC(=O)O

Key:
[1] = test system: superfused rat pituitary cells; assay: GH release in superfused rat pituitary cell system; type: cell-based; settings: 1 nM
Experimental: Growth hormone releasing is assayed by using a superfused rat pituitary cell system as described in S. Vigh and A. V. Schally, Peptides 5, Suppl: 241-347, 1984, which is incorporated by reference herein. The new synthetic peptide analogs of hGH-RH P20356 and JI-38 as control are administered for 3 minutes (1 mL perfusate) at 1 nM concentration as shown below. Fractions of 1 ml are collected and the GH content in each is determined by ELISA. […] Effect of hGH-RH analogs (1 nM) on the GH release in superfused rat pituitary cell system
Pituitary cells from 2 male rates were used for each channel of the superfusion system. The cells were exposed to 3-min pulses of the new GHRH agonists or to JI-38 as standard every 30 min. Outflowing samples of each channel (1 ml) were collected every 3 min, and GH levels were determined by ELISA.

GH release [2] = assay: In vivo GH release after subcutaneous administration; settings: rat, s.c.
Experimental: Blood samples are taken from the jugular vein; 5, 15 and 30 minutes or only 15 and 30 minutes after the injection. The blood samples are centrifuged, plasma is removed and the GH level is measured by ELISA. The results are summarized in terms of potency in Table 9.

GHRH receptor [3] = molecular target: T1, GHRH receptor (Homo sapiens, UniProt Q02643); assay: GHRH receptor binding, 125I-labeled JV-1-42 ligand competition, human pituitary membrane homogenates (Table 5)
T1 construct: Normal human pituitaries were purchased from the National Hormone and Peptide Program; tissue National Hormone and Peptide Program (A. F. Parlow); host or cells: normal human pituitary, membrane fraction
T1 sequence (Q02643 23-423): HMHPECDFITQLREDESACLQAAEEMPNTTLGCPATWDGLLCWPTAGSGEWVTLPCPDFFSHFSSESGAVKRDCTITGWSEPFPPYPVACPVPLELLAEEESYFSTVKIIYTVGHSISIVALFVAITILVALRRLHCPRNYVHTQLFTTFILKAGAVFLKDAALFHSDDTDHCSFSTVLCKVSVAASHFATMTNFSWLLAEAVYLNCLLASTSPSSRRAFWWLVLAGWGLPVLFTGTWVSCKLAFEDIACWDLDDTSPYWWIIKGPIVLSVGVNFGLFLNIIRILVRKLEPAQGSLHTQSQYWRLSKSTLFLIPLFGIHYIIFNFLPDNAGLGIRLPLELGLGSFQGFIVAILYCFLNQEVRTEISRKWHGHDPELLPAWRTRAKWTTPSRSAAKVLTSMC
Experimental: (§1) Receptor binding assay Ligand competition assay with ^125I-labeled [His^1, Nle^27]hGH-RH(1-32)-NH2 was used to determine the binding affinities of the novel hGH-RH agonists to membrane receptors of rat anterior pituitary cells. The methods used have been described in detail (Halmos G, et al. Receptor 3: 87-97, 1993), here by incorporated by reference. Briefly, radioidonated [His^1, Nle^27]hGH-RH(1-32)-NH2 is prepared by the chloramines-T method. […] IC50 is the dose of the tested peptides causing 50% inhibition of specific binding to receptors.
(§2) Preparation of human pituitary membrane fraction and receptor binding of GHRH agonists were performed as previously described, by using a sensitive in vitro ligand competition assay based on binding of ^125I-labeled JV-1-42 to human pituitary membrane homogenates. Normal human pituitaries were purchased from the National Hormone and Peptide Program (A. F. Parlow, Los Angeles, County Harbor-UCLA Medical Center, Torrance, Calif.). Briefly, in competitive binding analysis, ^125I-labeled JV-1-42 (˜0.2 nM) was displaced by GHRH agonists at 10^−6 to 10^−12 M.
The final binding affinities were expressed as IC50 values and were calculated by using the LIGAND PC computerized curve-fitting program of Munson and Rodbard as modified by McPherson.

GHRH receptor [4] = molecular target: T1, GHRH receptor; assay: GHRH receptor binding, 125I-labeled JV-1-42 ligand competition, human pituitary membrane homogenates (Table 7); settings: 125I-labeled JV-1-42, human pituitary membranes
Experimental: as §2, with “Calif.).” for “Calif.). Briefly, in competitive binding analysis, ^125I-labeled JV-1-42 (˜0.2 nM) was displaced by GHRH agonists at 10^−6 to 10^−12 M.”

GH release [5] = assay: In vivo GH release after intravenous administration; settings: rat, i.v.
Experimental: The blood samples are centrifuged, plasma is removed and the GH level is measured by ELISA.

GHRH receptor [6] = molecular target: T1, GHRH receptor; assay: GHRH receptor binding, [His1,125I-Tyr10,Nle27]hGHRH(1-32)NH2 ligand competition, human pituitary membrane homogenates (Table 6); settings: relative to GHRH(1-29) = 1
Experimental: as §1
as §2, with “[His^1, Nle^27]hGHRH(1-32)NH2” for “JV-1-42”, “Harbor—UCLA” for “Harbor-UCLA”, “Calif.).” for “Calif.). Briefly, in competitive binding analysis, ^125I-labeled JV-1-42 (˜0.2 nM) was displaced by GHRH agonists at 10^−6 to 10^−12 M.”

[7] = given subcutaneously twice a day; cited from earlier work
[8] = molecular target: dipeptidylpeptidase IV (DPP-IV) (Homo sapiens, UniProt P27487); settings: cited from earlier work
Chain of dipeptidylpeptidase IV (DPP-IV) (P27487 39-766 limits assumed, species assumed): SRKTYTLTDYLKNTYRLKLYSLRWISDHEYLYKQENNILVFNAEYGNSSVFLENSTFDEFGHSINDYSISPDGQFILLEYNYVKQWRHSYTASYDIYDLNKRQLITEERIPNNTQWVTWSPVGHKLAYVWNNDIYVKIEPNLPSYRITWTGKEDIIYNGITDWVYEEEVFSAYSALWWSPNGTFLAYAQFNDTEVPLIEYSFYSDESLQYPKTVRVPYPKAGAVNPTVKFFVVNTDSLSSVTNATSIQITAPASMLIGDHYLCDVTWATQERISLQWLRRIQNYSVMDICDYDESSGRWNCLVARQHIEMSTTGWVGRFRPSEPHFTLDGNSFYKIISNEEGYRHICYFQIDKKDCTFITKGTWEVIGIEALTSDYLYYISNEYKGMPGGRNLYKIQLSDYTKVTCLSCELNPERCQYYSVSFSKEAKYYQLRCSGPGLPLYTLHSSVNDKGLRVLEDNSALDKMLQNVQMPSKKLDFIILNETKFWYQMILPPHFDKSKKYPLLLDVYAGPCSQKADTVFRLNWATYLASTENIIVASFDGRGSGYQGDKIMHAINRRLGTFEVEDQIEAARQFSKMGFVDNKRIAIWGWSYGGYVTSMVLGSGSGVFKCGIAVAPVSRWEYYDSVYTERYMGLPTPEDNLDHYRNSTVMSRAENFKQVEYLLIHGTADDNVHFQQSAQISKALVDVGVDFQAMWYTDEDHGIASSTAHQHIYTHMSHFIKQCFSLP

Compound: CCCC[C@H](NC(=O)[C@@H](NC(=O)[C@H](CC(=O)O)NC(=O)[C@H](CCC(N)=O)NC(=O)[C@H](CC(C)C)NC(=O)[C@H](CC(C)C)NC(=O)[C@H](CCCN)NC(=O)[C@H](CCCNC(=N)N)NC(=O)[C@H](C)NC(=O)[C@H](CO)NC(=O)[C@H](CC(C)C)NC(=O)[C@H](CCC(N)=O)NC(=O)[C@H](CC)NC(=O)[C@H](CC(C)C)NC(=O)[C@@H](NC(=O)[C@H](CCCN)NC(=O)[C@H](CCCNC(=N)N)NC(=O)[C@H](Cc1ccc(O)cc1)NC(=O)[C@H](CO)NC(=O)[C@H](CCC(N)=O)NC(=O)[C@@H](NC(=O)[C@H](Cc1ccccc1)NC(=O)[C@@H](NC(=O)[C@H](C)NC(=O)[C@H](CC(=O)O)NC(=O)[C@H](C)NC(=O)[C@H](Cc1ccc(O)cc1)NC)[C@@H](C)CC)[C@@H](C)O)C(C)C)[C@@H](C)CC)C(=O)N[C@@H](CC(=O)O)C(=O)NCCCCNC(=N)N [Peptide P-20356, [N—Me-Tyr^1, Gln^8, Orn^12, Abu^15, Orn^21, Nle^27, Asp^28, Agm^29]hGH-RH(1-29)] (H-[NMeY]ADAIFTQSYR[Orn]VL[Abu]QLSAR[Orn]LLQDI[Nle]D-Agmatine)
times more potent in vitro than JI-38 (GH release) [1]: about 3 times
GH response after subcutaneous administration (in words) (GH release [2]): unusually high responses; also recorded: especially greater growth hormone levels than hGH-RH or JI-38

IC50 (GHRH receptor [3]; 125I-labeled JV-1-42, human pituitary membranes): 0.07 nM
IC50 (GHRH receptor [4]): 0.33 nM
Compound: CCCC[C@H](NC(=O)[C@@H](NC(=O)[C@H](CC(=O)O)NC(=O)[C@H](CCC(N)=O)NC(=O)[C@H](CC(C)C)NC(=O)[C@H](CC(C)C)NC(=O)[C@H](CCCN)NC(=O)[C@H](CCCNC(=N)N)NC(=O)[C@H](C)NC(=O)[C@H](CO)NC(=O)[C@H](CC(C)C)NC(=O)[C@H](CCC(N)=O)NC(=O)[C@H](CC)NC(=O)[C@H](CC(C)C)NC(=O)[C@@H](NC(=O)[C@H](CCCN)NC(=O)[C@H](CCCNC(=N)N)NC(=O)[C@H](Cc1ccc(O)cc1)NC(=O)[C@H](CO)NC(=O)[C@H](CC(N)=O)NC(=O)[C@@H](NC(=O)[C@H](Cc1c(F)c(F)c(F)c(F)c1F)NC(=O)[C@@H](NC(=O)[C@H](C)NC(=O)[C@H](CC(=O)O)NC(=O)[C@@H](C)NC(=O)CCc1ccc(O)cc1)[C@@H](C)CC)[C@@H](C)O)C(C)C)[C@@H](C)CC)C(=O)N[C@@H](CO)C(=O)N[C@@H](CCCNC(=N)N)C(=O)NCCCC(N)=O [Peptide P-25502, [Dat^1, D-Ala^2, Fpa5^6, Orn^12, Abu^15, Orn^21, Nle^27, Gab^30]hGH-RH(1-30)NH2] (Desaminotyrosyl-[dA]DAI[Phe(F5)]TNSYR[Orn]VL[Abu]QLSAR[Orn]LLQDI[Nle]SR[GABA]-NH2)
GH response after intravenous administration (in words) (GH release [5]): most potent
GH response after subcutaneous administration (in words) (GH release [2]): unusually high responses; also recorded: especially greater growth hormone levels than hGH-RH or JI-38

Relative affinity (Binding potency) vs GHRH (GHRH receptor [3]; relative to GHRH(1-29) = 1): 1
Relative affinity (Binding potency) vs GHRH (GHRH receptor [6]): 1
Compound: hGH-RH(1-29)NH2 [GHRH (1-29), reference compound]
share of GH-deficient children in whom linear growth was promoted [7]: approximately 50%

Compound: hGH-RH: native human GH-RH, 44 amino acids with an amidated carboxyl terminus
degradation in plasma via DPP-IV cleavage between residues 2 and 3 [8]: rapidly degraded
